ChEMBL document CHEMBL2413072, “Synthesis and in vitro anticancer studies of novel C-2 arylidene congeners of lantadenes” (2013)

Assays:
Assay type in all cases: functional
[1] = tested on: CAKI-1; experiment: Growth inhibition of human CAKI-1 cells by sulforhodamine B assay
[2] = tested on: NCI-H460; experiment: Growth inhibition of human NCI-H460 cells assessed as cell growth at 10^-8 M by sulforhodamine B assay; details: read-out: Activity
[3] = tested on: OVCAR-5; experiment: Growth inhibition of human OVCAR5 cells assessed as cell growth at 10^-4 M by sulforhodamine B assay; details: read-out: Activity
[4] = tested on: SNB-19; experiment: Growth inhibition of human SNB19 cells assessed as cell growth at 10^-4 M by sulforhodamine B assay; details: read-out: Activity
[5] = tested on: KM12; experiment: Growth inhibition of human KM12 cells assessed as cell growth at 10^-8 M by sulforhodamine B assay; details: read-out: Activity
[6] = tested on: OVCAR-8; experiment: Growth inhibition of human OVCAR8 cells assessed as cell growth at 10^-4 M by sulforhodamine B assay; details: read-out: Activity
[7] = tested on: HCT-15; experiment: Growth inhibition of human HCT15 cells by sulforhodamine B assay
[8] = tested on: PC-3; experiment: Growth inhibition of human PC3 cells by sulforhodamine B assay
[9] = tested on: SNB-75; experiment: Growth inhibition of human SNB75 cells by sulforhodamine B assay
[10] = tested on: M14; experiment: Growth inhibition of human M14 cells by sulforhodamine B assay
[11] = tested on: SK-MEL-5; experiment: Growth inhibition of human SK-MEL-5 cells by sulforhodamine B assay
[12] = tested on: NCI-H322M; experiment: Growth inhibition of human NCI-H322M cells assessed as cell growth at 10^-8 M by sulforhodamine B assay; details: read-out: Activity
[13] = tested on: NCI-H226; experiment: Growth inhibition of human NCI-H226 cells by sulforhodamine B assay
[14] = Growth inhibition of human Hs 578T cells assessed as cell growth at 10^-7 M by sulforhodamine B assay; details: read-out: Activity
[15] = tested on: Malme-3M; experiment: Growth inhibition of human MALME-3M cells assessed as cell growth at 10^-4 M by sulforhodamine B assay; details: read-out: Activity
[16] = tested on: K562; experiment: Growth inhibition of human K562 cells assessed as cell growth at 10^-6 M by sulforhodamine B assay; details: read-out: Activity
[17] = tested on: U-251; experiment: Growth inhibition of human U251 cells by sulforhodamine B assay
[18] = tested on: OVCAR-5; experiment: Growth inhibition of human OVCAR5 cells by sulforhodamine B assay
[19] = tested on: MCF7; experiment: Growth inhibition of human MCF7 cells assessed as cell growth at 10^-8 M by sulforhodamine B assay; details: read-out: Activity
[20] = tested on: M14; experiment: Growth inhibition of human M14 cells assessed as cell growth at 10^-6 M by sulforhodamine B assay; details: read-out: Activity
[21] = tested on: PC-3; experiment: Growth inhibition of human PC3 cells assessed as cell growth at 10^-7 M by sulforhodamine B assay; details: read-out: Activity
[22] = tested on: HOP-62; experiment: Growth inhibition of human HOP62 cells assessed as cell growth at 10^-8 M by sulforhodamine B assay; details: read-out: Activity
[23] = tested on: CAKI-1; experiment: Growth inhibition of human CAKI-1 cells assessed as cell growth at 10^-6 M by sulforhodamine B assay; details: read-out: Activity
[24] = tested on: MOLT-4; experiment: Growth inhibition of human MOLT4 cells assessed as cell growth at 10^-4 M by sulforhodamine B assay; details: read-out: Activity
[25] = tested on: SK-OV-3; experiment: Growth inhibition of human SKOV3 cells assessed as cell growth at 10^-4 M by sulforhodamine B assay; details: read-out: Activity
[26] = tested on: SR; experiment: Growth inhibition of human SR cells by sulforhodamine B assay
[27] = tested on: SK-OV-3; experiment: Growth inhibition of human SKOV3 cells assessed as cell growth at 10^-8 M by sulforhodamine B assay; details: read-out: Activity
[28] = tested on: RPMI-8226; experiment: Growth inhibition of human RPMI8226 cells assessed as cell growth at 10^-6 M by sulforhodamine B assay; details: read-out: Activity
[29] = tested on: M14; experiment: Growth inhibition of human M14 cells assessed as cell growth at 10^-8 M by sulforhodamine B assay; details: read-out: Activity
[30] = tested on: A498; experiment: Growth inhibition of human A498 cells assessed as cell growth at 10^-8 M by sulforhodamine B assay; details: read-out: Activity
[31] = tested on: OVCAR-4; experiment: Growth inhibition of human OVCAR4 cells assessed as cell growth at 10^-6 M by sulforhodamine B assay; details: read-out: Activity
[32] = tested on: MDA-MB-435; experiment: Growth inhibition of human MDA-MB-435 cells assessed as cell growth at 10^-4 M by sulforhodamine B assay; details: read-out: Activity
[33] = tested on: NCI-H23; experiment: Growth inhibition of human NCI-H23 cells assessed as cell growth at 10^-6 M by sulforhodamine B assay; details: read-out: Activity
[34] = tested on: K562; experiment: Growth inhibition of human K562 cells assessed as cell growth at 10^-8 M by sulforhodamine B assay; details: read-out: Activity
[35] = tested on: MDA-MB-231; experiment: Growth inhibition of human MDA-MB-231 cells assessed as cell growth at 10^-6 M by sulforhodamine B assay; details: read-out: Activity
[36] = tested on: COLO 205; experiment: Growth inhibition of human COLO205 cells by sulforhodamine B assay
[37] = tested on: SK-OV-3; experiment: Growth inhibition of human SKOV3 cells assessed as cell growth at 10^-6 M by sulforhodamine B assay; details: read-out: Activity
[38] = tested on: Malme-3M; experiment: Growth inhibition of human MALME-3M cells assessed as cell growth at 10^-7 M by sulforhodamine B assay; details: read-out: Activity
[39] = read-out: LC50 (the source's name)
[40] = read-out: pLC50 (the source's name) (converted)

CC(C)=CC(=O)O[C@@H]1CC(C)(C)C[C@H]2C3=CC[C@@H]4[C@@]5(C)CC[C@H](O)C(C)(C)[C@@H]5CC[C@@]4(C)[C@]3(C)CC[C@@]12C(=O)O [Reduced Lantadene B]
GI50 ([1]; read-out: GI50): 3.39 µM
CC50 [1, 39]: > 100 µM
TGI ([1]; read-out: TGI): 46.8 µM
GI50 ([1]; read-out: pGI50 (converted)): 3.39 µM
CC50 [1, 40]: > 100 µM
TGI ([1]; read-out: pTGI (converted)): 46.8 µM
growth at 0.01 µM [2]: 105%
growth at 100 µM [3]: -51%
growth at 100 µM [4]: -62%
growth at 0.01 µM [5]: 100%
growth at 100 µM [6]: -40%
GI50 ([7]; read-out: GI50): 1.56 µM
LC50 (50% lethal concentration) ([7]; read-out: LC50): > 100 µM
TGI ([7]; read-out: TGI): 19.2 µM
GI50 ([7]; read-out: pGI50 (converted)): 1.55 µM
LC50 (50% lethal concentration) ([7]; read-out: pLC50 (converted)): > 100 µM
TGI ([7]; read-out: pTGI (converted)): 19.1 µM
GI50 ([8]; read-out: GI50): 3.6 µM
CC50 [8, 39]: 64 µM
TGI ([8]; read-out: TGI): 21.9 µM
GI50 ([8]; read-out: pGI50 (converted)): 3.63 µM
CC50 [8, 40]: 64.6 µM
TGI ([8]; read-out: pTGI (converted)): 21.9 µM
GI50 ([9]; read-out: GI50): 12.7 µM
CC50 [9, 39]: > 100 µM
TGI ([9]; read-out: TGI): 41.2 µM
GI50 ([9]; read-out: pGI50 (converted)): 12.9 µM
CC50 [9, 40]: > 100 µM
TGI ([9]; read-out: pTGI (converted)): 40.7 µM
GI50 ([10]; read-out: GI50): 7.71 µM
CC50 [10, 39]: 67.8 µM
TGI ([10]; read-out: TGI): 24.8 µM
GI50 ([10]; read-out: pGI50 (converted)): 7.76 µM
CC50 [10, 40]: 67.6 µM
TGI ([10]; read-out: pTGI (converted)): 24.5 µM
GI50 ([11]; read-out: GI50): 2.86 µM
CC50 [11, 39]: 66.7 µM
TGI ([11]; read-out: TGI): 16.5 µM
GI50 ([11]; read-out: pGI50 (converted)): 2.88 µM
CC50 [11, 40]: 66.1 µM
TGI ([11]; read-out: pTGI (converted)): 16.6 µM
growth at 0.01 µM [12]: 90%
GI50 ([13]; read-out: GI50): 5.09 µM
LC50 ([13]; read-out: LC50): 86 µM
TGI ([13]; read-out: TGI): 24.2 µM
GI50 ([13]; read-out: pGI50 (converted)): 5.13 µM
LC50 ([13]; read-out: pLC50 (converted)): 85.1 µM
TGI ([13]; read-out: pTGI (converted)): 24 µM
growth at 0.1 µM [14]: 97%
growth at 100 µM [15]: -46%
growth at 1 µM [16]: 69%
GI50 ([17]; read-out: GI50): 2.62 µM
CC50 [17, 39]: 71.6 µM
TGI ([17]; read-out: TGI): 16.7 µM
GI50 ([17]; read-out: pGI50 (converted)): 2.63 µM
CC50 [17, 40]: 70.8 µM
TGI ([17]; read-out: pTGI (converted)): 16.6 µM
GI50 ([18]; read-out: GI50): 15.9 µM
CC50 [18, 39]: 98.9 µM
TGI ([18]; read-out: TGI): 39.7 µM
GI50 ([18]; read-out: pGI50 (converted)): 15.8 µM
CC50 [18, 40]: 100 µM
TGI ([18]; read-out: pTGI (converted)): 39.8 µM
growth at 0.01 µM [19]: 97%
growth at 1 µM [20]: 89%
growth at 0.1 µM [21]: 90%
growth at 0.01 µM [22]: 85%
growth at 1 µM [23]: 85%
growth at 100 µM [24]: -43%
growth at 100 µM [25]: -62%
GI50 ([26]; read-out: GI50): 5.04 µM
CC50 [26, 39]: > 100 µM
TGI ([26]; read-out: TGI): 35.4 µM
GI50 ([26]; read-out: pGI50 (converted)): 5.01 µM
CC50 [26, 40]: > 100 µM
TGI ([26]; read-out: pTGI (converted)): 35.5 µM
growth at 0.01 µM [27]: 102%
growth at 1 µM [28]: 65%
growth at 0.01 µM [29]: 94%
growth at 0.01 µM [30]: 84%
growth at 1 µM [31]: 83%
growth at 100 µM [32]: -26%
growth at 1 µM [33]: 91%
growth at 0.01 µM [34]: 114%
growth at 1 µM [35]: 85%
GI50 ([36]; read-out: GI50): 3.66 µM
LC50 ([36]; read-out: LC50): 93.6 µM
TGI ([36]; read-out: TGI): 14.3 µM
GI50 ([36]; read-out: pGI50 (converted)): 3.63 µM
LC50 ([36]; read-out: pLC50 (converted)): 93.3 µM
TGI ([36]; read-out: pTGI (converted)): 14.5 µM
growth at 1 µM [37]: 104%
growth at 0.1 µM [38]: 94%
